Bounds are passed on as bounds.

For assay [1], the target named is T1, Estrogen receptor (Homo sapiens, UniProt P03372).
T1 sequence (P03372 whole entry): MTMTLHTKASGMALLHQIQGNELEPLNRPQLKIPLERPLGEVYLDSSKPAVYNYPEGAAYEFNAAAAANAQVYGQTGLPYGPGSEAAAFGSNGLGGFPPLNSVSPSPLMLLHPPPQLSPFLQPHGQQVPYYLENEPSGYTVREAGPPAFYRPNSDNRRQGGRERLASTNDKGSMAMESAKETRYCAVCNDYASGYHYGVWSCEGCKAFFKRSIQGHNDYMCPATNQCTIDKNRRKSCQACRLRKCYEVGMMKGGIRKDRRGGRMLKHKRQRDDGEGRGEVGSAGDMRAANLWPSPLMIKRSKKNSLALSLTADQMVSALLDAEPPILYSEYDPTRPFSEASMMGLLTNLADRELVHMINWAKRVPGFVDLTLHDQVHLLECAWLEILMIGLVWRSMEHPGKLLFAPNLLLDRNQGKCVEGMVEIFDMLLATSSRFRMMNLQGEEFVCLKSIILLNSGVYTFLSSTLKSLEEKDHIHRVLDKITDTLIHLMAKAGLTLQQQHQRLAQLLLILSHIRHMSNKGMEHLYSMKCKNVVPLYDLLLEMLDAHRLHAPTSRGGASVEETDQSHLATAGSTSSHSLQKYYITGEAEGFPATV
Description: Inhibition of human LBD of ERalpha

Assay [2] deals with Estrogen receptor beta (Homo sapiens, UniProt Q92731).
Estrogen receptor beta, sequence (Q92731 whole entry, the tested form may be a part): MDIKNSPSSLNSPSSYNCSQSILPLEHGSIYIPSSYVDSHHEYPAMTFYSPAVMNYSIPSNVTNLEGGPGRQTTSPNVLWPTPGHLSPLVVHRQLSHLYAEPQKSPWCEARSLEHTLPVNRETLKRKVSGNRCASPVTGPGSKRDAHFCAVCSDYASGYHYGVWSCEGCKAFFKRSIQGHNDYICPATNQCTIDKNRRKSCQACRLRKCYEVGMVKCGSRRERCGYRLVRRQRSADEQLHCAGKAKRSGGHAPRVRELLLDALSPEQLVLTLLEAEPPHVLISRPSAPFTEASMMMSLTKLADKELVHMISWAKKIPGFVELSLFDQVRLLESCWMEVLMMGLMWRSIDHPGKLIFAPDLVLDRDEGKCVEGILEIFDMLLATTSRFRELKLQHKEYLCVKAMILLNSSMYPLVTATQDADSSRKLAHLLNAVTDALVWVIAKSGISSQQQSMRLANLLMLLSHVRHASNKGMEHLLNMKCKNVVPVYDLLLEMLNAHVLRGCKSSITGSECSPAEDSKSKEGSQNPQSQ
Description: Inhibition of human LBD of ERbeta
The species entered for assay [3] is Homo sapiens. As to the kind of experiment: Selectivity for human LBD of ERbeta over human LBD of ERalpha.

`O=C1c2ccccc2C(=O)N1c1ccc(O)cc1`: the half-maximal inhibitory concentration (IC50) in assay [1] and in assay [2] was over 10000 nM throughout.

For `O=C1c2ccc(O)cc2C(=O)N1c1cccc2c(O)cccc12`, the Ratio IC50 in assay [3] was determined as 4. Further, the half-inhibitory concentration (IC50) in assay [1] is 802 nM; in assay [2], 2810 nM.

For `O=C1c2ccc(O)cc2C(=O)N1[C@H]1CC[C@H](O)CC1`, the IC50 in assay [1] and in assay [2] was over 5000 nM each time.

For the compound `O=C1c2ccc(O)cc2C(=O)N1c1ccccc1`, the IC50 in assay [1] was 2700 nM; in assay [2], over 5000 nM.

With `O=C1c2ccc(O)cc2C(=O)N1c1ccc(O)cc1[N+](=O)[O-]`, the Ratio IC50 in assay [3] came to 4. Further, the IC50 in assay [1] came out at 21 nM; in assay [2], 92 nM.

As to `O=C1c2ccc(O)cc2C(=O)N1c1ccc(O)cc1`, the Ratio IC50 in assay [3] was 24. Further, the IC50 in assay [1] came out at 84 nM; in assay [2], 1980 nM.

Consider `COc1ccc(N2C(=O)c3ccc(O)cc3C2=O)c([N+](=O)[O-])c1`, for which the IC50 in assay [1] and in assay [2] was over 5000 nM in each case.

For `O=C1c2ccc(O)cc2C(=O)N1c1ccc(O)c2ccccc12`, in assay [3], the Ratio IC50 amounted to 0.2. Besides, the figures for the IC50 in assay [1] and in assay [2] were 2640 nM and 560 nM, respectively.

As for `COc1cc(Br)c2c(c1)C(=O)N(c1ccc(O)cc1)C2=O`, the IC50 in assay [1] and in assay [2] was over 5000 nM in each case.

On to `O=C1c2ccc(O)cc2C(=O)N1c1cc(O)cc(O)c1`, for which the IC50 in assay [1] and in assay [2] was over 5000 nM throughout.

Regarding `COc1ccc(N2C(=O)c3ccc(O)cc3C2=O)cc1`, the IC50 in assay [1] is 3300 nM; in assay [2], over 5000 nM.

As for `O=C1c2cc(O)cc(Br)c2C(=O)N1c1ccc(O)cc1`, the Ratio IC50 in assay [3] was 45. The IC50 in assay [1] was 36 nM; in assay [2] it was 1620 nM.

Take `Cc1cc(O)ccc1N1C(=O)c2ccc(O)cc2C1=O`: the Ratio IC50 in assay [3] was 4. Moreover, the IC50 amounted to 802 nM in assay [1] and 2810 nM in assay [2].

As for `COc1ccc(N2C(=O)c3ccc(O)cc3C2=O)c(OC)c1`, the results for the half-maximal inhibitory concentration (IC50) in assay [1] and in assay [2] were 2470 nM and over 5000 nM, respectively.

For `O=C1c2ccc(O)cc2C(=O)N1c1ccc(O)cc1F`, the Ratio IC50 in assay [3] is 6. The IC50 in assay [1] worked out at 53 nM; in assay [2] it was 339 nM.

With `O=C1c2ccc(O)cc2C(=O)N1c1cccc(O)c1`, the IC50 was 2900 nM in assay [1] and over 5000 nM in assay [2].

As a reminder, the IC50 is the point on the concentration scale where inhibition reaches its midpoint. Low values mean inhibition by little substance, high ones a need for much substance.

The record behind these values is ChEMBL document CHEMBL1146264, “Estrogen receptor beta ligands: design and synthesis of new 2-phenyl-isoindole-1,3-diones” (Bioorg Med Chem Lett, 2007).
